Data on one substance can be found in patent US6342219B1 (Board of Regents, The University of Texas System, priority 1999, dated 2002).

In assay [1] the test system is tumor sections (endothelium, connective tissue, tumor cell). Description: Immunohistochemistry on frozen tumor sections (reactivity pattern). The format is binding. Set-up: key: EC = endothelium; CT = connective tissue; TC = tumor cell; NR = no reaction. To be noted: acetone fixed frozen sections; 2C3 and 12D7 at 20 μg/ml, others 5-10 μg/ml. The protocol:
(§1) Guinea pig line 10 hepatocellular carcinoma tumor cells (obtained from Dr. Ronald Neuman, NIH, Bethesda, Md.) were grown in strain 2 guinea pigs (NCI, Bethesda, Md.). The human tumors NCI-H358 non-small cell lung carcinoma (NSCLC), NCI-H460 NSCLC (both obtained from Dr. Adi Gazdar, UT Southwestern, Dallas, Tex.), HT29 colon adenocarcinoma (American Type Culture Collection), and L540CY Hodgkin's lymphoma (obtained from Professor V. Diehl, Cologne, Germany) were grown as xenografts in CB17 SCID mice (Charles River, Wilmington, Mass.).
Tumors were snap frozen in liquid nitrogen and stored at −70° C. Frozen samples of tumor specimens from patients were obtained from the National Cancer Institute Cooperative Human Tissue Network (Southern Division, Birmingham, Ala.). Immunohistochemistry was performed as described by Burrows et al. (1995). […]
The immunohistochemical reactivity of 3E7, GV39M, and 11B5 on NCI-H358 human NSCLC xenografts was determined and compared with control antibodies (an IgG of irrelevant specificity; A-20, a rabbit anti-VEGF antibody; and MECA 32, a rat anti-mouse endothelial cell antibody). […]

Assay [2] deals with human tumor xenografts (NCI-H358, NCI-H460, HT29, L540). Description: Immunohistochemistry, endothelial cell staining, human tumor xenografts. The class given is binding, human tumors grown in SCID mice. Set-up: key: −, negative; +/−, very weak; 1+, weak; 2+, moderate; 3+, strong; 4+, very strong. The following applies: acetone fixed frozen sections. The method, then:
as §1
Tumors were snap frozen in liquid nitrogen and stored at −70° C. Frozen samples of tumor specimens from patients were obtained from the National Cancer Institute Cooperative Human Tissue Network (Southern Division, Birmingham, Ala.). Immunohistochemistry was performed as described by Burrows et al. (1995).
In general terms: In xenograft studies the graft and the host belong to different species.

For the substance “2C3: anti-VEGF monoclonal antibody, IgG2a, k, produced by hybridoma ATCC PTA 1595; blocks VEGF binding to VEGFR2 but not VEGFR1 [Clone 2C3]”, in assay [1], the “Reactivity (immunohistochemical pattern on tumor sections)” value is “NR”. In assay [2], the “Endothelial Cell Staining, Xenograft (various)” value is recorded as “−”.
